Calls of active or inactive are those of the source. The rule behind the calls is not given here.
Legend:
[1] = biological target: T1, Pteridine reductase 1 (Leishmania major) (UniProt Q01782); experiment: Noncompetitive inhibition of Leishmania major PTR1 at 1 mM in presence of varying levels of biopterin and constant NADPH level by spectrofluorimetric method
T1 sequence (whole entry): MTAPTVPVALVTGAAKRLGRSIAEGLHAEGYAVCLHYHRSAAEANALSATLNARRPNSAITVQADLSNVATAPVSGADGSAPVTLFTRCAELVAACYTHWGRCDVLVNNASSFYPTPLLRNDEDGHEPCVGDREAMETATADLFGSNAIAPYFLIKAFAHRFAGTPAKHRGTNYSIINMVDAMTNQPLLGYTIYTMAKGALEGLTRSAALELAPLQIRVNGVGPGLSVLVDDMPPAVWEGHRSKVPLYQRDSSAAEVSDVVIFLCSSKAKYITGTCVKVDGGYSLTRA

[2] = biological target: T1, Pteridine reductase 1 (Leishmania major); experiment: Binding affinity to Leishmania major PTR1 BL21(DE3) assessed as change in melting temperature by SYPRO orange dye based RT-PCR analysis
[3] = biological target: T1, Pteridine reductase 1 (Leishmania major); experiment: Binding affinity to Leishmania major PTR1 BL21(DE3) assessed as change in melting temperature at 50 uM by SYPRO orange dye based RT-PCR analysis
[4] = biological target: T1, Pteridine reductase 1 (Leishmania major); experiment: Noncompetitive inhibition of Leishmania major PTR1 at 1 mM in presence of saturating concentration of biopterin and varying levels of NADPH by spectrofluorimetric method
[5] = biological target: T2, Pteridine reductase 1 (Leishmania major, UniProt Q01782); experiment: Inhibition of Leishmania major PTR1 using biopterin as substrate and NADPH as cofactor by spectrofluorimetric method
T2 sequence (Q01782 whole entry): T1 sequence (whole entry)

[6] = biological target: T1, Pteridine reductase 1 (Leishmania major); experiment: Inhibition of Leishmania major PTR1 at 50 uM using biopterin as substrate and NADPH as cofactor by spectrofluorimetric method relative to control
[7] = biological target: T1, Pteridine reductase 1 (Leishmania major); experiment: Competitive inhibition of Leishmania major PTR1 assessed as decrease in thermal shift stabilization at 1 mM in presence of varying levels of biopterin and constant NADPH level by spectrofluorimetric method
[8] = biological target: T1, Pteridine reductase 1 (Leishmania major); experiment: Competitive inhibition of Leishmania major PTR1 assessed as decrease in thermal shift stabilization at 1 mM in presence of saturating concentration of biopterin and varying levels of NADPH by spectrofluorimetric method

Row | Compound | inhibition [1] | Activity [2] | ΔTm [3] [°C] | inhibition [4] | IC50 [5] [µM] | inhibition [6] [%] | inhibition [7] | inhibition [8]
1 | CC(N(C)Cc1nc2ccccc2c(=O)[nH]1)C(C)(C)C (stereo not given) | Active | Dose-dependent effect | 0.91 | Active |  |  |  | 
2 | Cc1sc2ncnc(N/N=C/c3ccccc3)c2c1C |  | Dose-dependent effect | 1.02 |  | 32.3 | > 50 | Active | Active
